Data taken from patent US8741906B2 (priority 2011, dated 2014).
Read-outs that look alike come from different tables or passages of the source.

What was measured:
human CB2 receptors = biological target: T1, human CB2 receptors (Homo sapiens, UniProt P34972); assay: functional cAMP assay, human CB2; type: cell-based; conditions: CHO cells expressing human CB2, cAMP; read-out: human CB2 EC50
T1 construct: expressed in transfected cells; host or cells: CHO cells
In short: (§1)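 CHO cells with human CB1 or CB2 were switched to Krebs Ringer bicarbonate buffer with 1 mM IBMX for 30 min at 30 °C, then given compound for 30 min at 30 °C. cAMP was measured by time-resolved FRET against a cAMP standard curve, and EC50 values were calculated.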

human CB1 receptors = biological target: T2, human CB1 receptors (Homo sapiens, UniProt P21554); assay: functional cAMP assay, human CB1; type: cell-based
T2 construct: expressed in transfected cells; host or cells: CHO cells
T2 sequence (P21554 whole entry): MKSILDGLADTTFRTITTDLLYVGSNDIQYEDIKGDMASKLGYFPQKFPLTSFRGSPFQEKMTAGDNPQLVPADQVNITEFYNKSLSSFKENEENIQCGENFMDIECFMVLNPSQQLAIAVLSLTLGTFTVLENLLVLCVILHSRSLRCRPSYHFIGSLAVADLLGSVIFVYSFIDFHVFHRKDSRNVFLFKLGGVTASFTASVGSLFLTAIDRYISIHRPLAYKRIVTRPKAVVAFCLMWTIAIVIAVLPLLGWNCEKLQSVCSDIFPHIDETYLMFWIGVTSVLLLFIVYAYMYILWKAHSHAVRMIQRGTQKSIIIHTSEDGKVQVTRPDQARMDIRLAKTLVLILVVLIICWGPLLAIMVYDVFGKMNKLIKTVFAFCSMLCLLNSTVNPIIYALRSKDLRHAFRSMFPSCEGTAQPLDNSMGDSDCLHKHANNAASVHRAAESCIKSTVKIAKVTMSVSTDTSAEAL
In short: as §1

[1] = CHO cells expressing human CB1, cAMP, read-out: human CB1 EC50

T1 sequence (P34972 whole entry): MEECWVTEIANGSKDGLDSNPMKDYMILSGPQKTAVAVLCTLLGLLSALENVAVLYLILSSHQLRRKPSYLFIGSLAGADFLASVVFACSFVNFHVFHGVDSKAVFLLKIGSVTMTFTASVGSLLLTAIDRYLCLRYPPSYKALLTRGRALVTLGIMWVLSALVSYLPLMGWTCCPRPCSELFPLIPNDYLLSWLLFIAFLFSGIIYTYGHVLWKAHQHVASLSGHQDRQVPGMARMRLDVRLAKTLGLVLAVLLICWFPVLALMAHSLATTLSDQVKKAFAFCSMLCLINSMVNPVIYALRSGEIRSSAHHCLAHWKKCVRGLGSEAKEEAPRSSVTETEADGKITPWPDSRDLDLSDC

**Q.** Cc1noc(Cn2nnc3c(N4CC5(COC5)C4)nc(C(C)(C)C)nc32)n1 [Example 180, 5-tert-Butyl-3-(3-methyl-[1,2,4]oxadiazol-5-ylmethyl)-7-(2-oxa-6-aza-spiro[3.3]hept-6-yl)-3H-[1,2,3]triazolo[4,5-d]pyrimidine] was tested. Which EC50 (human CB2 receptors) did it give?
**A.** 0.0528 µM

**Q.** What about the EC50 (human CB1 receptors; [1]) of the same compound?
**A.** > 10 µM

**Q.** Which EC50 (human CB2 receptors) does the source give for Cc1nnc(Cn2nnc3c(N4CC5(COC5)C4)nc(C(C)(C)C)nc32)o1 [Example 181, 5-tert-Butyl-3-(5-methyl-[1,3,4]oxadiazol-2-ylmethyl)-7-(2-oxa-6-aza-spiro[3.3]hept-6-yl)-3H-[1,2,3]triazolo[4,5-d]pyrimidine] here?
**A.** 0.0594 µM

**Q.** What about the EC50 (human CB1 receptors; [1]) of the same compound?
**A.** > 10 µM

**Q.** How did the EC50 (human CB2 receptors) turn out when Cn1nnnc1Cn1nnc2c(N3CC4(COC4)C3)nc(C(C)(C)C)nc21 [Example 182, 5-tert-Butyl-3-(1-methyl-1H-tetrazol-5-ylmethyl)-7-(2-oxa-6-aza-spiro[3.3]hept-6-yl)-3H-[1,2,3]triazolo[4,5-d]pyrimidine] was run?
**A.** 0.0139 µM

**Q.** And the EC50 (human CB1 receptors; [1])?
**A.** > 10 µM

**Q.** Which EC50 (human CB2 receptors) does the source give for CC(C)(C)c1nc(N2CC3(COC3)C2)c2nnn(Cc3nnnn3C3CC3)c2n1 [Example 183, 5-tert-Butyl-3-(1-cyclopropyl-1H-tetrazol-5-ylmethyl)-7-(2-oxa-6-aza-spiro[3.3]hept-6-yl)-3H-[1,2,3]triazolo[4,5-d]pyrimidine] here?
**A.** 0.0042 µM

**Q.** What about the EC50 (human CB1 receptors; [1]) of the same compound?
**A.** > 10 µM

**Q.** Cc1nnc(Cn2nnc3c(N4CC5(COC5)C4)nc(C(C)(C)C)nc32)n1C [Example 184, 5-tert-Butyl-3-(4,5-dimethyl-4H-[1,2,4]triazol-3-ylmethyl)-7-(2-oxa-6-aza-spiro[3.3]hept-6-yl)-3H-[1,2,3]triazolo[4,5-d]pyrimidine] was tested. Which EC50 (human CB2 receptors) did it give?
**A.** 0.112 µM

**Q.** And the EC50 (human CB1 receptors)?
**A.** > 10 µM

**Q.** How did the EC50 (human CB2 receptors) turn out when Cn1nncc1Cn1nnc2c(N3CC4(COC4)C3)nc(C(C)(C)C)nc21 [Example 185, 5-tert-Butyl-3-(3-methyl-3H-[1,2,3]triazol-4-ylmethyl)-7-(2-oxa-6-aza-spiro[3.3]hept-6-yl)-3H-[1,2,3]triazolo[4,5-d]pyrimidine] was run?
**A.** 0.0268 µM

**Q.** What about the EC50 (human CB1 receptors; [1]) of the same compound?
**A.** > 10 µM

**Q.** For CC(C)(C)c1nc(N2CC3(COC3)C2)c2nnn(Cc3ccccc3S(C)(=O)=O)c2n1 [Example 186, 5-tert-Butyl-3-(2-methanesulfonyl-benzyl)-7-(2-oxa-6-aza-spiro[3.3]hept-6-yl)-3H-[1,2,3]triazolo[4,5-d]pyrimidine], which EC50 (human CB2 receptors) is on record?
**A.** 0.0003 µM

**Q.** And the EC50 (human CB1 receptors; [1])?
**A.** 0.137 µM

**Q.** Which EC50 (human CB2 receptors) does the source give for CC(C)(C)c1nc(N2CC3(COC3)C2)c2nnn(Cc3ncccc3Cl)c2n1 [Example 187, 5-tert-Butyl-3-(3-chloro-pyridin-2-ylmethyl)-7-(2-oxa-6-aza-spiro[3.3]hept-6-yl)-3H-[1,2,3]triazolo[4,5-d]pyrimidine] here?
**A.** 0.0008 µM

**Q.** And the EC50 (human CB1 receptors; [1])?
**A.** 0.119 µM

**Q.** Which EC50 (human CB2 receptors) does the source give for CC(C)(C)c1nc(N2CCC(=O)C2)c2nnn(Cc3ccccc3Cl)c2n1 [Example 188, 1-[5-tert-Butyl-3-(2-chloro-benzyl)-3H-[1,2,3]triazolo[4,5-d]pyrimidin-7-yl]-pyrrolidin-3-one] here?
**A.** 0.001 µM

**Q.** What about the EC50 (human CB1 receptors; [1]) of the same compound?
**A.** > 10 µM

**Q.** CC1(C)CCN(c2nc(C(C)(C)C)nc3c2nnn3Cc2ccccc2Cl)C1 [Example 189, 5-tert-Butyl-3-(2-chloro-benzyl)-7-(3,3-dimethyl-pyrrolidin-1-yl)-3H-[1,2,3]triazolo[4,5-d]pyrimidine] was tested. Which EC50 (human CB2 receptors) did it give?
**A.** 0.0332 µM

**Q.** And the EC50 (human CB1 receptors; [1])?
**A.** > 10 µM

**Q.** Which results are given for CNC1CCN(c2nc(C(C)(C)C)nc3c2nnn3Cc2ccccc2Cl)C1 (stereo not shown) [Example 190, {1-[5-tert-Butyl-3-(2-chloro-benzyl)-3H-[1,2,3]triazolo[4,5-d]pyrimidin-7-yl]-pyrrolidin-3-yl}-methyl-amine]?
**A.** EC50 (human CB2 receptors): 0.0726 µM; EC50 (human CB1 receptors; [1]): > 10 µM

**Q.** CN(C)C1CCN(c2nc(C(C)(C)C)nc3c2nnn3Cc2ccccc2Cl)C1 (stereo not shown) [Example 191, {1-[5-tert-Butyl-3-(2-chloro-benzyl)-3H-[1,2,3]triazolo[4,5-d]pyrimidin-7-yl]-pyrrolidin-3-yl}-dimethyl-amine] was tested. Which EC50 (human CB2 receptors) did it give?
**A.** 0.173 µM

**Q.** What about the EC50 (human CB1 receptors) of the same compound?
**A.** > 10 µM

**Q.** For CC(=O)N[C@H]1CCN(c2nc(C(C)(C)C)nc3c2nnn3Cc2ccccc2Cl)C1 [Example 192, N-{(S)-1-[5-tert-Butyl-3-(2-chloro-benzyl)-3H-[1,2,3]triazolo[4,5-d]pyrimidin-7-yl]-pyrrolidin-3-yl}-acetamide], which EC50 (human CB2 receptors) is on record?
**A.** 0.022 µM

**Q.** What about the EC50 (human CB1 receptors; [1]) of the same compound?
**A.** > 10 µM

**Q.** CC(=O)N[C@@H]1CCN(c2nc(C(C)(C)C)nc3c2nnn3Cc2ccccc2Cl)C1 [Example 193, N-{(R)-1-[5-tert-Butyl-3-(2-chloro-benzyl)-3H-[1,2,3]triazolo[4,5-d]pyrimidin-7-yl]-pyrrolidin-3-yl}-acetamide] was tested. Which EC50 (human CB2 receptors) did it give?
**A.** 0.593 µM

**Q.** What about the EC50 (human CB1 receptors; [1]) of the same compound?
**A.** > 10 µM

**Q.** What does the source list for CC(=O)N(C)C1CCN(c2nc(C(C)(C)C)nc3c2nnn3Cc2ccccc2Cl)C1 (stereo not shown) [Example 194, N-{1-[5-tert-Butyl-3-(2-chloro-benzyl)-3H-[1,2,3]triazolo[4,5-d]pyrimidin-7-yl]-pyrrolidin-3-yl}-N-methyl-acetamide]?
**A.** EC50 (human CB2 receptors): 0.285 µM; EC50 (human CB1 receptors): > 10 µM

**Q.** With CC(C)(C)c1nc(N2CCC(c3ccccc3)C2)c2nnn(Cc3ccccc3Cl)c2n1 (stereo not shown) [Example 195, 5-tert-Butyl-3-(2-chloro-benzyl)-7-(3-phenyl-pyrrolidin-1-yl)-3H-[1,2,3]triazolo[4,5-d]pyrimidine] as the compound, how does the EC50 (human CB2 receptors) read?
**A.** 0.467 µM

**Q.** And the EC50 (human CB1 receptors)?
**A.** > 10 µM

**Q.** Which results are given for CCN(C(C)=O)C1CCN(c2nc(C(C)(C)C)nc3c2nnn3Cc2ccccc2Cl)C1 (stereo not shown) [Example 196, N-{1-[5-tert-Butyl-3-(2-chloro-benzyl)-3H-[1,2,3]triazolo[4,5-d]pyrimidin-7-yl]-pyrrolidin-3-yl}-N-ethyl-acetamide]?
**A.** EC50 (human CB2 receptors): 0.119 µM; EC50 (human CB1 receptors): > 10 µM

**Q.** For COC(=O)C1CN(c2nc(C(C)(C)C)nc3c2nnn3Cc2ccccc2Cl)C1 [Example 197, 1-[5-tert-Butyl-3-(2-chloro-benzyl)-3H-[1,2,3]triazolo[4,5-d]pyrimidin-7-yl]-azetidine-3-carboxylic acid methyl ester], which EC50 (human CB2 receptors) is on record?
**A.** 0.257 µM

**Q.** And the EC50 (human CB1 receptors)?
**A.** > 10 µM

**Q.** CC1CCN(c2nc(C(C)(C)C)nc3c2nnn3Cc2ccccc2Cl)C1 (stereo not shown) [Example 198, 5-tert-Butyl-3-(2-chloro-benzyl)-7-(3-methyl-pyrrolidin-1-yl)-3H-[1,2,3]triazolo[4,5-d]pyrimidine] was tested. Which EC50 (human CB2 receptors) did it give?
**A.** 0.0128 µM

**Q.** And the EC50 (human CB1 receptors; [1])?
**A.** 1.71 µM

**Q.** CC(C)(C)c1nc(N2CCC[C@H]2CN)c2nnn(Cc3ccccc3Cl)c2n1 [Example 199, C-{(S)-1-[5-tert-Butyl-3-(2-chloro-benzyl)-3H-[1,2,3]triazolo[4,5-d]pyrimidin-7-yl]-pyrrolidin-2-yl}-methylamine] was tested. Which EC50 (human CB2 receptors) did it give?
**A.** 0.183 µM

**Q.** What about the EC50 (human CB1 receptors) of the same compound?
**A.** > 10 µM

**Q.** Cn1ccc(C2CCCN2c2nc(C(C)(C)C)nc3c2nnn3Cc2ccccc2Cl)n1 (stereo not shown) [Example 200, 5-tert-Butyl-3-(2-chloro-benzyl)-7-[2-(1-methyl-1H-pyrazol-3-yl)-pyrrolidin-1-yl]-3H-[1,2,3]triazolo[4,5-d]pyrimidine] was tested. Which EC50 (human CB2 receptors) did it give?
**A.** 0.178 µM

**Q.** And the EC50 (human CB1 receptors)?
**A.** > 10 µM

**Q.** For Cn1nccc1C1CCCN1c1nc(C(C)(C)C)nc2c1nnn2Cc1ccccc1Cl (stereo not shown) [Example 201, 5-tert-Butyl-3-(2-chloro-benzyl)-7-[2-(2-methyl-2H-pyrazol-3-yl)-pyrrolidin-1-yl]-3H-[1,2,3]triazolo[4,5-d]pyrimidine], which EC50 (human CB2 receptors) is on record?
**A.** 0.0657 µM

**Q.** And the EC50 (human CB1 receptors; [1])?
**A.** > 10 µM

**Q.** Cc1cc(C2CCCN2c2nc(C(C)(C)C)nc3c2nnn3Cc2ccccc2Cl)on1 (stereo not shown) [Example 202, 5-tert-Butyl-3-(2-chloro-benzyl)-7-[2-(3-methyl-isoxazol-5-yl)-pyrrolidin-1-yl]-3H-[1,2,3]triazolo[4,5-d]pyrimidine] was tested. Which EC50 (human CB2 receptors) did it give?
**A.** 0.0868 µM

**Q.** And the EC50 (human CB1 receptors; [1])?
**A.** > 10 µM

**Q.** With Cc1noc(C2CCCN2c2nc(C(C)(C)C)nc3c2nnn3Cc2ccccc2Cl)n1 (stereo not shown) [Example 203, 5-tert-Butyl-3-(2-chloro-benzyl)-7-[2-(3-methyl-[1,2,4]oxadiazol-5-yl)-pyrrolidin-1-yl]-3H-[1,2,3]triazolo[4,5-d]pyrimidine] as the compound, how does the EC50 (human CB2 receptors) read?
**A.** 0.0531 µM

**Q.** What about the EC50 (human CB1 receptors; [1]) of the same compound?
**A.** > 10 µM

**Q.** How did the EC50 (human CB2 receptors) turn out when CC(C)(C)c1nc(N2CCC(O)C2)c2nnn(Cc3ccccc3Cl)c2n1 (stereo not shown) [Example 204, 1-[5-tert-Butyl-3-(2-chloro-benzyl)-3H-[1,2,3]triazolo[4,5-d]pyrimidin-7-yl]-pyrrolidin-3-ol] was run?
**A.** 0.0005 µM

**Q.** And the EC50 (human CB1 receptors; [1])?
**A.** > 10 µM

**Q.** Which results are given for CC(C)(C)c1nc(OC2CCC2)c2nnn(Cc3ccccc3Cl)c2n1 [Example 205, 5-tert-Butyl-3-(2-chloro-benzyl)-7-cyclobutoxy-3H-[1,2,3]triazolo[4,5-d]pyrimidine]?
**A.** EC50 (human CB2 receptors): 0.0122 µM; EC50 (human CB1 receptors; [1]): > 10 µM

**Q.** Which results are given for CC(C)(C)c1nc(OC2COC2)c2nnn(Cc3ccccc3Cl)c2n1 [Example 206, 5-tert-Butyl-3-(2-chloro-benzyl)-7-(oxetan-3-yloxy)-3H-[1,2,3]triazolo[4,5-d]pyrimidine]?
**A.** EC50 (human CB2 receptors): 0.0113 µM; EC50 (human CB1 receptors; [1]): > 10 µM

**Q.** How did the EC50 (human CB2 receptors) turn out when COc1nc(C(C)(C)C)nc2c1nnn2Cc1ccccc1Cl [Example 207, 5-tert-Butyl-3-(2-chloro-benzyl)-7-methoxy-3H-[1,2,3]triazolo[4,5-d]pyrimidine] was run?
**A.** 0.068 µM

**Q.** What about the EC50 (human CB1 receptors; [1]) of the same compound?
**A.** > 10 µM

**Q.** Which results are given for CCOc1nc(C(C)(C)C)nc2c1nnn2Cc1ccccc1Cl [Example 208, 5-tert-Butyl-3-(2-chloro-benzyl)-7-ethoxy-3H-[1,2,3]triazolo[4,5-d]pyrimidine]?
**A.** EC50 (human CB2 receptors): 0.0092 µM; EC50 (human CB1 receptors; [1]): > 10 µM

**Q.** Which results are given for CC(C)Oc1nc(C(C)(C)C)nc2c1nnn2Cc1ccccc1Cl [Example 209, 5-tert-Butyl-3-(2-chloro-benzyl)-7-isopropoxy-3H-[1,2,3]triazolo[4,5-d]pyrimidine]?
**A.** EC50 (human CB2 receptors): 0.016 µM; EC50 (human CB1 receptors; [1]): > 10 µM

**Q.** Which results are given for CC(C)(C)c1nc(OCC2CC2)c2nnn(Cc3ccccc3Cl)c2n1 [Example 210, 5-tert-Butyl-3-(2-chloro-benzyl)-7-cyclopropylmethoxy-3H-[1,2,3]triazolo[4,5-d]pyrimidine]?
**A.** EC50 (human CB2 receptors): 0.0167 µM; EC50 (human CB1 receptors; [1]): > 10 µM

**Q.** For CC(Oc1nc(C(C)(C)C)nc2c1nnn2Cc1ccccc1Cl)C1CC1 (stereo not shown) [Example 211, 5-tert-Butyl-3-(2-chloro-benzyl)-7-(1-cyclopropyl-ethoxy)-3H-[1,2,3]triazolo[4,5-d]pyrimidine], which EC50 (human CB2 receptors) is on record?
**A.** 0.0986 µM

**Q.** And the EC50 (human CB1 receptors; [1])?
**A.** > 10 µM
